Laboratory results taken from paper PMC8119466, “A screen of FDA-approved drugs identifies inhibitors of protein tyrosine phosphatase 4A3 (PTP4A3 or PRL-3)” (Scientific Reports, 2021).
Like-named read-outs stand apart in the source and are kept apart here.

Assays:
Assay type in all cases: biochemical
[1] = molecular target: T1, recombinant PRL-3 (Homo sapiens, UniProt O75365); assay: In vitro phosphatase assay (DiFMUP hydrolysis), PRL-3; note: test concentration or dose not given here
T1 construct: 6xHis (N, cleaved yes); made in house; host or cells: E. coli One Shot BL21 Star

[2] = molecular target: T2, recombinant PRL-1 (Homo sapiens, UniProt Q93096); assay: In vitro phosphatase assay (DiFMUP hydrolysis), PRL-1; note: test concentration or dose not given here
T2 construct: 6xHis (N, cleaved yes); made in house; host or cells: E. coli One Shot BL21 Star
T2 sequence (Q93096 1-173): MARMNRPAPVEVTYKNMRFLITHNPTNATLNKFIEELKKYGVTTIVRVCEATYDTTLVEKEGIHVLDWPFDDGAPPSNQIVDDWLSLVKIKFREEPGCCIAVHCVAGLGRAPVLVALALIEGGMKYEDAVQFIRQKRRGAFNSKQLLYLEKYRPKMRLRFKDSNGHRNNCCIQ

[3] = molecular target: T3, recombinant PRL-2 (Homo sapiens, UniProt Q12974); assay: In vitro phosphatase assay (DiFMUP hydrolysis), PRL-2;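 note: PRL-2 activity read as DiFMUP hydrolysis after 20 min at room temperature with drug, enzyme first pre-reduced at 4 °C for 20 min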
T3 construct: 6xHis (N, cleaved yes); made in house; host or cells: E. coli One Shot BL21 Star
T3 sequence (Q12974 1-167): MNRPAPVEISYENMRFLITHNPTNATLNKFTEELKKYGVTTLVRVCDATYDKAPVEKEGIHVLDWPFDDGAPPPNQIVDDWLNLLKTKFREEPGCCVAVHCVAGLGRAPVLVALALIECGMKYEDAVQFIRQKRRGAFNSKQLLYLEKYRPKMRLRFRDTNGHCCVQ

[4] = FDA-approved drug screen, compared to DMSO
[5] = FDA-approved drug screen, activity compared to DMSO

T1 sequence (O75365 whole entry): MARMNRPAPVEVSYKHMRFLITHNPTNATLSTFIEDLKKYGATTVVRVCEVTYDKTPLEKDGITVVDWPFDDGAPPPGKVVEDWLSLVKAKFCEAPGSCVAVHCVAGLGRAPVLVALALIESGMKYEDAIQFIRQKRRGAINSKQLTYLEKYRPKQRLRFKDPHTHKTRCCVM

SMILES | % Phosphatase Activity (compared to DMSO) PRL-3 [1, 4] | % Phosphatase Activity (compared to DMSO) PRL-1 [2, 4] | % Phosphatase Activity (compared to DMSO) PRL-2 [3, 4] | further results
[NH2][Pt]1([NH2])[O]CC(=O)[O]1 [Nedaplatin] | 94% | 102% | 97% | –
Nc1nc(=O)c2nc(CNc3ccc(C(=O)N[C@@H](CCC(=O)O)C(=O)O)cc3)cnc2[nH]1 [Folic acid] | 92% | 100% | 112% | –
CC(C)NCC(O)c1ccc(O)c(O)c1.Cl (stereo not drawn) [Isoprenaline HCl] | 94% | 114% | 124% | –
C[C@]12CCC(=O)C(O)=C1CC[C@@H]1[C@@H]2CC[C@]2(C)C(=O)CC[C@@H]12 [Formestane] | – | – | – | % Phosphatase Activity (compared to DMSO) PRL-3 [1]: 85%; % Phosphatase Activity (compared to DMSO) PRL-1 [2]: 102%; % Phosphatase Activity (compared to DMSO) PRL-2 [3]: 123%
CC(C)(C#N)c1cc(Cn2cncn2)cc(C(C)(C)C#N)c1 [Anastrozole] | 96% | 106% | 122% | –
COCCCN1CCC(NC(=O)c2cc(Cl)c(N)c3c2OCC3)CC1 [Prucalopride] | 85% | 97% | 113% | –
CO[C@H]1/C=C/O[C@@]2(C)Oc3c(C)c(O)c4c(O)c(c5c(nc6cc(C)ccn65)c4c3C2=O)NC(=O)/C(C)=C\C=C\[C@H](C)[C@H](O)[C@@H](C)[C@@H](O)[C@@H](C)[C@H](OC(C)=O)[C@@H]1C [Rifaximin] | 79% | 64% | 60% | –
CC[C@H](C)C(=O)O[C@H]1C[C@H](O)C=C2C=C[C@H](C)[C@H](CC[C@@H](O)C[C@@H](O)CC(=O)O)[C@H]21 [Pravastatin sodium] | 93% | 93% | 113% | –
CC(C)(Oc1ccc(CCNC(=O)c2ccc(Cl)cc2)cc1)C(=O)O [Bezafibrate] | 90% | 123% | 119% | –
CN1CCC[C@@H]1Cc1c[nH]c2ccc(CCS(=O)(=O)c3ccccc3)cc12 [Eletriptan HBr] | 92% | 109% | 121% | –
CCC(C)(C)C(=O)O[C@H]1C[C@@H](C)C=C2C=C[C@H](C)[C@H](CC[C@@H]3C[C@@H](O)CC(=O)O3)[C@H]21 [Simvastatin] | – | – | – | % Phosphatase Activity (compared to DMSO) PRL-3 [1, 5]: 91%; % Phosphatase Activity (compared to DMSO) PRL-1 [2, 5]: 84%; % Phosphatase Activity (compared to DMSO) PRL-2 [3, 5]: 94%
CN(C)CCN1C(=O)c2cccc3cc(N)cc(c23)C1=O [Amonafide] | 72% | 89% | 98% | –
CCN(c1cc(-c2ccc(CN3CCOCC3)cc2)cc(C(=O)NCc2c(C)cc(C)[nH]c2=O)c1C)C1CCOCC1 [EPZ-6438] | 95% | 85% | 77% | –
COc1ccc(CC2c3cc(OC)c(OC)cc3CC[N+]2(C)CCC(=O)OCCCCCOC(=O)CC[N+]2(C)CCc3cc(OC)c(OC)cc3C2Cc2ccc(OC)c(OC)c2)cc1OC (stereo not drawn) [Atracurium Besylate] | 101% | 99% | 101% | –
C[C@]12CC[C@@H]3c4ccc(O)cc4CC[C@H]3[C@@H]1CC[C@@H]2OC(=O)CCC1CCCC1 [Estradiol Cypionate] | 74% | 96% | 109% | –
Clc1ccc(CCC(Cn2ccnc2)Sc2c(Cl)cccc2Cl)cc1 (stereo not drawn) [Butoconazole nitrate] | 98% | 97% | 109% | –
